Where two headings read alike, the source gives them in different places.
How the values were obtained:
NRAS/RAF1 = target: T1, NRAS/RAF1 (Homo sapiens, UniProt P01111); experiment: Protein-protein interaction (PPI) HTRF assay w.t. NRAS/RAF1; type: binding; details: Table 3; wt NRAS/RAF1
T1 construct: (1-169); His6-SUMO (N, cleaved yes)
Protocol: (§1) When RAS proteins are in the active GTP-bound conformation, they bind the effector protein RAF1 at the N-terminus Ras-binding domain (RBD, residues 52-131) (Tran, et al., 2021). Homogenous time resolved fluorescence (HTRF) was used to monitor the interaction between wt or mutant KRAS and RAF1 or wt NRAS and RAF1. Compounds were assayed in the presence of KRAS G12D/V and RAF1 versus wt KRAS to assess activity against mutant and w.t. KRAS. Similarly, compounds were then assayed in the presence of w.t. NRAS and RAF1 to assess RAS isoform selectivity. In all assay formats, His-tagged RAF1 protein was incubated with the HTRF donor, anti-6His Tb Cryptate gold (Cisbio 61DB10RDF), and biotinylated RAS proteins were incubated with the HTRF acceptor, streptavidin-d2 (CisBio 610SADLA). The intensity of the fluorescence signal emitted is proportional to binding between the two proteins. The donor solution was prepared by mixing 16 nM His-tagged RAF1 in protein dilution buffer with 1:100 anti-6His Tb cryptate in PPI-Terbium detection buffer. 16 nM biotinylated RAS protein was diluted into protein dilution buffer (50 mM Tris-HCl pH 7.5, 150 mM NaCl, 0.1 mM MgCl2, 1 mM TCEP, 0.005% Tween20) and mixed with 1:2000 Streptavidin-d2 diluted in PPI-Terbium detection buffer (CisBio 61DB10RDF). 50× compound in DMSO was mixed with 16 nM KRAS-acceptor solution and incubated for 30 minutes at room temperature. After compound pre-incubation with KRAS, the RAF1 donor solution was added to the KRAS-acceptor solution and incubated for 1 hour at room temperature. The fluorescence signal emitted was monitored at 665 nm and 615 nm using an Envision multimode plate reader. The HTRF ratio (665/615) was calculated and normalized to 0% inhibition in the absence of compound and 100% inhibition in the presence of untagged RAF1 protein. PPI KRAS G12D/RAF1, KRAS G12V/RAF1, w.t. KRAS/RAF1 and NRAS/RAF1 IC50 (uM) values of selected compounds are depicted in Table 3 and Table 4 with compounds having a value <0.1 uM as ++++; ≥0.1 uM to 1 uM as +++; ≥1 uM to 10 uM as ++; ≥10 uM to 100 uM as +; and ≥100 uM as NA.

KRAS G12D/RAF1 = target: T2, KRAS G12D/RAF1 (Homo sapiens, UniProt P01116, G12D); experiment: Protein-protein interaction (PPI) HTRF assay KRAS G12D/RAF1; type: binding; details: Table 2
T2 construct: KRAS (1-169) proteins were expressed in BL21 (DE3)-CodonPlus E. coli; His6-MBP (N, cleaved yes)
Protocol: as §1

phospho-ERK in AGS cells = experiment: pERK In Cell Western (ICW) assay (Method B), AGS; type: cell-based; details: Homo sapiens, Table 2, 3 hours
Protocol: pERK ICW is a high throughput screening assay to evaluate the cellular potency of mutant KRAS small molecule inhibitors. KRAS mutant cell lines AGS, GP2D (KRAS-G12D) as well as SW620 (KRAS-G12V) were purchased from ATCC and maintained respectively in RPMI/DMEM/RPMI medium supplemented with 10% fetal bovine serum.
Cells grown in exponential phase were trypsinized, resuspended in fresh media, and viable cells were counted using a cell counter with Trypan Blue (BioRad TC20). Cells were seeded into 384-well plate (Greiner 781091) at density of 5,000 cells/well for AGS and 10,000 cells/well for GP2D/SW620 and allowed to grow overnight in a 37° C. CO2 incubator. The next day, compounds were dispensed into wells with a ½ log, 9-point serial dilution using a Tecan D300e dispenser and incubated for 3 hours in a 37° C. CO2 incubator. Cells were then fixed with paraformaldehyde (Electron Microscopy Sciences, 15710, 4% final concentration) for 30 min, permeabilized with wash buffer (1×PBS+0.1% Triton X-100) for 30 min and blocked with Odyssey blocking buffer (Li—COR 927-70001) for 1 hour, all at room temperature (RT). Phospho-ERK antibody (CST 4370L) was diluted 1:500 in Odyssey T20 (PBS) antibody diluent (Li—COR 927-75001) and incubated with cells overnight at 4° C. The next day, plates were washed 5× with wash buffer, incubated with IRDye 800 CW, Goat anti-Rabbit secondary antibody (Li—COR 926-32211, 1:800) and DRAQ5 (CST 4084L, 1:5,000) diluted in Odyssey T20 (PBS) antibody diluent for 1 hour, washed 5×, and imaged on an Odyssey CLx imaging system.
For data analysis, signal intensities from 800 (phosphor-ERK) and 700 (DRAQ5) channels were extracted, and phospho-ERK signals were normalized to DRAQ5 signals for each well and percent of blank control values were computed. Data were then imported into Graphpad Prism to compute half-maximal inhibitory concentrations (IC50) using a 4-parameter variable slope model. Z-factor for each plate was computed from signals derived from wells treated with either DMSO or 5 μM of control compound. AGS pERK ICW (Method B) IC50 (uM) values of selected compounds are depicted in Table 2 with compounds having a value ≥0.001 uM to 0.01 uM as ++++; ≥0.01 uM to 0.1 uM as +++; ≥0.1 uM to 1 uM as ++; ≥1 uM to 10 uM as + and ≥10 uM as NA.

[1] = target: GST-tagged KRAS-G12D (2-169) (Homo sapiens, UniProt P01116, G12D); experiment: Nucleotide exchange assay (NEA), SOS-mediated, HTRF, KRAS G12D; type: biochemical; details: IC50 extracted at 30 min, 20 nM SOScat
In short: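 Compound preincubated 1 h at RT with 0.25 nM GST-KRAS-G12D (2-169) and anti-GST Tb donor, then 20 nM SOS1cat (564-1049) and 150 nM GTP-DY-647P1 added; pH 7.3 HEPES buffer with MgCl2 and DTT. HTRF monitored at RT; % inhibition versus DMSO and no-SOS blank, 4-parameter IC50 taken at 30 min.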

[2] = target: GST-tagged KRAS-G12V (2-169) (Homo sapiens, UniProt P01116, G12V); experiment: Nucleotide exchange assay (NEA), SOS-mediated, HTRF, KRAS G12V; type: biochemical; details: Table 4; IC50 extracted at 90 min; 80 nM SOS
In short: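 GST-KRAS-G12V (2-169), 0.25 nM, pre-incubated 1 h at RT with compound, then SOS1cat (564-1049) 80 nM and GTP-DY-647P1 150 nM added in HEPES pH 7.3 buffer with MgCl2 and DTT. HTRF via anti-GST Tb cryptate read over 90 min; IC50 from 4-parameter fit at 90 min, blanked to no-SOS reactions.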

KRAS G12V/RAF1 = target: T3, KRAS G12V/RAF1 (Homo sapiens, UniProt P01116, G12V); experiment: Protein-protein interaction (PPI) HTRF assay KRAS G12V/RAF1; type: binding; details: Table 3
T3 construct: KRAS (1-169) proteins were expressed in BL21 (DE3)-CodonPlus E. coli; His6-MBP (N, cleaved yes)
Protocol: as §1

w.t. KRAS/RAF1 = target: T4, w.t. KRAS/RAF1 (Homo sapiens, UniProt P01116); experiment: Protein-protein interaction (PPI) HTRF assay w.t. KRAS/RAF1; type: binding; details: Table 3; wt KRAS/RAF1
T4 construct: KRAS (1-169) proteins were expressed in BL21 (DE3)-CodonPlus E. coli; His6-MBP (N, cleaved yes)
Protocol: as §1

[3] = tested on: phospho-ERK in GP2D (KRAS-G12D) cells; experiment: pERK In Cell Western (ICW) assay (Method B), GP2D; type: cell-based; details: GP2d, 3 h, Table 4
In short: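 Cells were seeded at 5,000/well (AGS) or 10,000/well (GP2D, SW620), grown overnight, then treated 3 h at 37 °C with a ½-log 9-point compound dilution. Fixed cells were stained for phospho-ERK with DRAQ5 as DNA counterstain; pERK/DRAQ5 ratio as percent of blank control gave IC50 by 4-parameter fit.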

[4] = Table 2, read-out: NEA-G12D (uM) IC50

T2 sequence (P01116 with tags, fused parts or gaps isoform P01116-2 G12D): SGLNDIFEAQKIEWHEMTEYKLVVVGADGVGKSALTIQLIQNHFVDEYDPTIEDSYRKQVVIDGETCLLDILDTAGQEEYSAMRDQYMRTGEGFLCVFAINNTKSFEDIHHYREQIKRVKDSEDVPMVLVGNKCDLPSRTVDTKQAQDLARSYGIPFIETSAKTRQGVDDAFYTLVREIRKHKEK
Sequence of GST-tagged KRAS-G12D (2-169) (P01116 2-169 isoform P01116-2 G12D): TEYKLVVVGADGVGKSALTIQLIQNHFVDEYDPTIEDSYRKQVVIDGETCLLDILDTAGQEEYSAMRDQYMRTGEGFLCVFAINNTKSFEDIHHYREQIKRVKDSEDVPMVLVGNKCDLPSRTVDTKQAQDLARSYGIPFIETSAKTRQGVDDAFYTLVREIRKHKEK
T1 sequence (P01111 with tags, fused parts or gaps): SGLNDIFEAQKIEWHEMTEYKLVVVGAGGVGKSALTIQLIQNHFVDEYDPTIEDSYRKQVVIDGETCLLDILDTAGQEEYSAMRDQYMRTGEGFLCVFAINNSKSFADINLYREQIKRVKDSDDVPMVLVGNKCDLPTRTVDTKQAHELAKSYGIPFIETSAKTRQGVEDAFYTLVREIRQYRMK
T3 sequence (P01116 with tags, fused parts or gaps isoform P01116-2 G12V): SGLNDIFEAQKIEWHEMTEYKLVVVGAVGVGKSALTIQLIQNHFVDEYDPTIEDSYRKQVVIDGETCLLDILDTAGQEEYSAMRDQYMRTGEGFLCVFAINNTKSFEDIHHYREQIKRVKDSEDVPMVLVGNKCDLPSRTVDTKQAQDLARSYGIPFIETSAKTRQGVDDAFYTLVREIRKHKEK
T4 sequence (P01116 with tags, fused parts or gaps isoform P01116-2): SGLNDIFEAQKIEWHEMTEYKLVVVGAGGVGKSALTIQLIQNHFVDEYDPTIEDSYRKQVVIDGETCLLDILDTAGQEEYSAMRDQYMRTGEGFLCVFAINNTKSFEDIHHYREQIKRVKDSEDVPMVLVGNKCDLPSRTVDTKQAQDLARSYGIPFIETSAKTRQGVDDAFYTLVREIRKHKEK
Sequence of GST-tagged KRAS-G12V (2-169) (P01116 2-169 isoform P01116-2 G12V): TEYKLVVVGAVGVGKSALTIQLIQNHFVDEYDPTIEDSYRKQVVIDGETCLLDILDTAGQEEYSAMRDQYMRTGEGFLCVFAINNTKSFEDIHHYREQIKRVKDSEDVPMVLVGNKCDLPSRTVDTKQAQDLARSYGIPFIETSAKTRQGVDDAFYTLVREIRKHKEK

Compound | IC50 (NRAS/RAF1) [µM] | IC50 (KRAS G12D/RAF1) [µM] | IC50 (phospho-ERK in AGS cells) [µM] | IC50 [1, 4] [µM] | IC50 [2] [nM] | IC50 (KRAS G12V/RAF1) [µM] | IC50 (w.t. KRAS/RAF1) [µM] | IC50 [3] [nM] | IC50 ([1]; Table 4, read-out: NEA G12D IC50) [µM]
N#Cc1c(N)sc(Cl)c1C1CCN(c2nc(OCC3(CN4CCOCC4)CC3)nc(N3C[C@H]4CC[C@@H](C3)N4)n2)C1 (stereo partly drawn) [Compound 4, 2-amino-5-chloro-4-[1-[4-[[1-(morpholinomethyl)cyclopropyl]methoxy]-6-[(1R,5S)-3,8-diazabicyclo[3.2.1]octan-3-yl]-1,3,5-triazin-2-yl]pyrrolidin-3-yl]thiophene-3-carbonitrile] | > 100 | 1 to 10 | 1 to 10 | < 0.01 |  |  |  |  | 
CN(C)C(=O)c1nn2c(c1Cl)CN(c1nc(OC[C@@]34CCCN3C[C@H](F)C4)nc(N3CC4(CCc5sc(N)c(C#N)c54)C3)n1)CCC2 [Compound 5, 5-[4-(2-amino-3-cyano-spiro[5,6-dihydrocyclopenta[b]thiophene-4,3′-azetidine]-1′-yl)-6-[[(2R,8S)-2-fluoro-1,2,3,5,6,7-hexahydropyrrolizin-8-yl]methoxy]-1,3,5-triazin-2-yl]-3-chloro-N,N-dimethyl-4,6,7,8-tetrahydropyrazolo[1,5-a][1,4]diazepine-2-carboxamide] | > 100 | 10 to 100 | 0.1 to 1 | < 0.01 |  |  |  |  | 
N#Cc1c(N)sc2c1C1(CC2)CN(c2nc(OC[C@@]34CCCN3C[C@H](F)C4)nc(N3CC[C@@H](O)[C@@H](O)C3)n2)C1 (racemic) [Compound 22, 2-amino-1′-[4-[rac-(3S,4R)-3,4-dihydroxy-1-piperidyl]-6-[[(2R,8S)-2-fluoro-1,2,3,5,6,7-hexahydropyrrolizin-8-yl]methoxy]-1,3,5-triazin-2-yl]spiro[5,6-dihydrocyclopenta[b]thiophene-4,3′-azetidine]-3-carbonitrile] |  | 1 to 10 | 1 to 10 | 0.01 to 0.1 | 10 to 100 | 10 to 100 | 1 to 10 | 1000 to 20000 | 0.01 to 0.1
